In US10820597B2, “Phytosanitary composition comprising essential oils that potentiate antifungal activity” (BIOFUNGITEK, S. L., priority 2011, dated 2020):
Read-outs that look alike come from different tables or passages of the source.

Tests used:
Botrytis cinerea [1] = test: Growth of B. cinerea in PDB liquid culture, optical density after 24 h; format: cell-based; conditions: 24 h OD
Alternaria alternata [2] = test: Growth of A. alternata in liquid culture, optical density after 24 h; format: cell-based; conditions: Alternaria alternata, 24 h OD, read-out: Inhibition ± SD (%)
Penicillium digitatum = test: Growth of P. digitatum in liquid culture, optical density after 24 h; format: cell-based; conditions: 24 h OD
Botrytis cinerea [3] = test: Treated tomato leaves infected with B. cinerea, % infection after two weeks; format: in vivo
Alternaria alternata [4] = test: Treated tomato leaves infected with A. alternata, % infection; format: in vivo
Phytophthora infestans = format: in vivo; conditions: tomato plants
[5] = thymol 350 ppm, listed as thymol

Cc1ccc(C(C)C)c(O)c1 [Thymol, thymol]
inhibition at 0.31 ppm (Botrytis cinerea [1]; Botrytis cinerea, 24 h, thymol 0.31 ppm, read-out: Inhibition ± SD (%)): 0%
inhibition at 1 ppm (Botrytis cinerea [1]; Botrytis cinerea, 24 h, thymol 1 ppm, read-out: Inhibition ± SD (%)): 2.1 ± 2.9%
inhibition at 3.1 ppm (Botrytis cinerea [1]; Botrytis cinerea, 24 h, thymol 3.1 ppm, read-out: Inhibition ± SD (%)): 10.7 ± 2.3%
inhibition at 10 ppm (Botrytis cinerea [1]; Botrytis cinerea, 24 h, thymol 10 ppm, read-out: Inhibition ± SD (%)): 13%
inhibition at 31 ppm (Botrytis cinerea [1]; Botrytis cinerea, 24 h, thymol 31 ppm, read-out: Inhibition ± SD (%)): 32 ± 1.7%
inhibition at 100 ppm (Botrytis cinerea [1]; Botrytis cinerea, 24 h, thymol 100 ppm, read-out: Inhibition ± SD (%)): 88.2 ± 0.6%
Inhibition ± SD (%) (Botrytis cinerea [1]; thymol 10 ppm): 12.6 ± 2.4%
inhibition at 0.31 ppm (Alternaria alternata [2]; thymol 0.31 ppm): 0%
inhibition at 1 ppm (Alternaria alternata [2]; thymol 1 ppm): 4.1 ± 2.9%
inhibition at 3.1 ppm (Alternaria alternata [2]; thymol 3.1 ppm): 10.4 ± 2.6%
inhibition at 10 ppm (Alternaria alternata [2]; thymol 10 ppm): 16 ± 2%
inhibition at 31 ppm (Alternaria alternata [2]; thymol 31 ppm): 29%
inhibition at 100 ppm (Alternaria alternata [2]; thymol 100 ppm): 69.4%
inhibition at 0.31 ppm (Penicillium digitatum; Penicillium digitatum, 24 h, thymol 0.31 ppm, read-out: Inhibition ± SD (%)): 28.2 ± 3.9%
inhibition at 1 ppm (Penicillium digitatum; Penicillium digitatum, 24 h, thymol 1 ppm, read-out: Inhibition ± SD (%)): 24.2 ± 6%
inhibition at 3.1 ppm (Penicillium digitatum; Penicillium digitatum, 24 h, thymol 3.1 ppm, read-out: Inhibition ± SD (%)): 36.3 ± 2.3%
inhibition at 10 ppm (Penicillium digitatum; Penicillium digitatum, 24 h, thymol 10 ppm, read-out: Inhibition ± SD (%)): 36.2 ± 2%
inhibition at 31 ppm (Penicillium digitatum; Penicillium digitatum, 24 h, thymol 31 ppm, read-out: Inhibition ± SD (%)): 51%
inhibition at 100 ppm (Penicillium digitatum; Penicillium digitatum, 24 h, thymol 100 ppm (first column headed 100), read-out: Inhibition ± SD (%)): 78.3 ± 2.2%
inhibition at 100 ppm (Penicillium digitatum; Penicillium digitatum, 24 h, thymol 100 ppm (second column headed 100), read-out: Inhibition ± SD (%)): 95.6 ± 0.5%
Inhibition ± SD (%) (Penicillium digitatum; thymol 31 ppm): 50.7 ± 2.0%
Inhibition ± SD (%) (Botrytis cinerea [3]; thymol 35 ppm): 7.4%
Inhibition ± SD (%) (Botrytis cinerea [3]; thymol 100 ppm): 17.7%
Inhibition ± SD (%) (Botrytis cinerea [3]; thymol 200 ppm): 20.9%
Inhibition ± SD (%) (Botrytis cinerea [3]; thymol 350 ppm): 22.8%
Inhibition ± SD (%) (Botrytis cinerea [3]; [5]): 23%
Inhibition ± SD (%) (Alternaria alternata [4]; thymol 35 ppm): 10.0%
Inhibition ± SD (%) (Alternaria alternata [4]; thymol 100 ppm): 15.2%
Inhibition ± SD (%) (Alternaria alternata [4]; thymol 200 ppm): 19.3%
Inhibition ± SD (%) (Alternaria alternata [4]; thymol 350 ppm): 21.3%
Inhibition ± SD (%) (Alternaria alternata [4]; [5]): 21%
Inhibition ± SD (%) (Phytophthora infestans; thymol 35 ppm): 4.3 ± 0.7%
Inhibition ± SD (%) (Phytophthora infestans; thymol 150 ppm): 16.2 ± 3.2%
Inhibition ± SD (%) (Phytophthora infestans; thymol 350 ppm): 33.6 ± 5.6%
Inhibition ± SD (%) (Phytophthora infestans; [5]): 34%
